In patent US6914045B2, “Glycopeptide antibiotics” (Wyeth Holdings Corporation, priority 2001, dated 2005):
Converted amounts (≈) assume the structure as drawn. Numbered stars: 1 amine (or outer) side, 2 acyl side, 3 side chain; on linkers, the order of the positions; unused ones are H or OH. Square brackets hold non-standard residues; d marks the D form. Peptide text beside a SMILES is read from it. * marks the point of attachment. ξ: configuration not given here. X6 = N=C1NCC(CC(N[*:1])C(=O)[*:2])N1C1OC(CO)C(O)C(O)C1O; ξEnduracididine(βξ-OH,4'ξ) = N=C1NCC(C(O)C(N)C(=O)O)N1; X2 = OCC1OC(OC2C(CO)OC(*)C(O)C2O)C(O)C(O)C1O; ξPhe(βξ-Me) = CC(c1ccccc1)C(N)C(=O)O

What was measured:
Experiment in all cases: in vitro antibacterial evaluation, MIC by broth dilution
Type in all cases: cell-based
[1] = system: Enterococcus sp.; details: broth dilution, 18 hours at 35° C.
Summary of the method: (§1)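 Step 1: dilute antibiotic across 64-0.06 μg/mL in Muller-Hinton II […]. Step 2: inoculate at 5×10^5 CFU/mL.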

[2] = system: Escherichia coli; details: 18 hours at 35° C.
Summary of the method: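 Read-out: the lowest concentration at which the test strain fails to grow. Serial dilutions (64-0.06 μg/mL) in Muller-Hinton II […], 5×10^5 CFU/mL inoculum, NCCLS M7-A2 procedure.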

[3] = system: Staphylococcus sp.; details: broth dilution, 18 hours at 35° C.
Summary of the method: as §1

[4] = system: Streptococcus sp.; details: broth dilution, 18 hours at 35° C.
Summary of the method: as §1

MIC Enterococcus avium (GC 4558) ([1]; Enterococcus avium (GC 4558)): 128 µg/mL (≈ 100 µM) | MIC Enterococcus faecalis (ATCC 29212) ([1]; Enterococcus faecalis (ATCC 29212)): >128 µg/mL | MIC Enterococcus faecalis (GC 4553) ([1]; Enterococcus faecalis (GC 4553)): >128 µg/mL | MIC Enterococcus faecalis (GC 4554) ([1]; Enterococcus faecalis (GC 4554)): >128 µg/mL | MIC Enterococcus faecalis (GC 6189) ([1]; Enterococcus faecalis (GC 6189)): >128 µg/mL | MIC Enterococcus faecium (GC 2243) ([1]; Enterococcus faecium (GC 2243)): >128 µg/mL | MIC Enterococcus faecium (GC 4556) ([1]; Enterococcus faecium (GC 4556)): >128 µg/mL | MIC Enterococcus faecium (GC 4557) ([1]; Enterococcus faecium (GC 4557)): 128 µg/mL (≈ 100 µM) | MIC Enterococcus faecalis (ATCC 29212) ([1]; strain ATCC 29212): >128 µg/mL | MIC Enterococcus faecalis (GC 2242) ([1]; strain GC 2242): >128 µg/mL | MIC Enterococcus faecium (GC 2243) ([1]; strain GC 2243): >128 µg/mL | MIC Enterococcus faecalis (GC 2691) ([1]; strain GC 2691): >128 µg/mL | MIC Enterococcus faecalis (GC 3059) ([1]; strain GC 3059): >128 µg/mL | MIC Enterococcus faecalis (GC 4552) ([1]; strain GC 4552): >128 µg/mL | MIC Enterococcus faecalis (GC 4553) ([1]; strain GC 4553): >128 µg/mL | MIC Enterococcus faecalis (GC 4554) ([1]; strain GC 4554): >128 µg/mL | MIC Enterococcus faecium (GC 4556) ([1]; strain GC 4556): >128 µg/mL | MIC Enterococcus faecium (GC 4557) ([1]; strain GC 4557): 128 µg/mL (≈ 100 µM) | MIC Enterococcus avium (GC 4558) ([1]; strain GC 4558): 128 µg/mL (≈ 100 µM) | MIC Enterococcus faecalis (GC 6189) ([1]; strain GC 6189): >128 µg/mL | MIC Escherichia coli (ATCC 25922) ([2]; Escherichia coli (ATCC 25922)): >128 µg/mL | MIC Escherichia coli (GC 4559) ([2]; Escherichia coli (GC 4559)): >128 µg/mL | MIC Escherichia coli (GC 4560) ([2]; Escherichia coli (GC 4560)): >128 µg/mL | MIC Coagulase Negative Staphylococcus (GC 4547) [3]: >128 µg/mL | MIC Coagulase Negative Staphylococcus (GC 4548) [3]: >128 µg/mL | MIC Coagulase Negative Staphylococcus (GC 4549) [3]: >128 µg/mL | MIC Coagulase Negative Staphylococcus (GC 4551) [3]: >128 µg/mL | MIC Staphylococcus aureus (ATCC 29213) [3]: >128 µg/mL | MIC Staphylococcus aureus (GC 1131) [3]: >128 µg/mL | MIC Staphylococcus aureus (GC 3051) [3]: >128 µg/mL | MIC Staphylococcus aureus (GC 3053) [3]: >128 µg/mL | MIC Staphylococcus aureus (GC 4541) [3]: >128 µg/mL | MIC Staphylococcus aureus (GC 4542) [3]: >128 µg/mL | MIC Staphylococcus aureus (GC 4544) [3]: >128 µg/mL | MIC Staphylococcus aureus (GC 4545) [3]: >128 µg/mL | MIC Staphylococcus aureus-SMITH (GC 4543) [3]: >128 µg/mL | MIC Staphylococcus aureus (ATCC 29213) ([3]; strain ATCC 29213): >128 µg/mL | MIC Staphylococcus aureus (GC 1131) ([3]; strain GC 1131): >128 µg/mL | MIC Staphylococcus aureus (GC 3051) ([3]; strain GC 3051): >128 µg/mL | MIC Staphylococcus aureus (GC 3053) ([3]; strain GC 3053): >128 µg/mL | MIC Staphylococcus aureus (GC 4541) ([3]; strain GC 4541): >128 µg/mL | MIC Staphylococcus aureus (GC 4542) ([3]; strain GC 4542): >128 µg/mL | MIC Staphylococcus aureus (GC 4544) ([3]; strain GC 4544): >128 µg/mL | MIC Staphylococcus aureus (GC 4545) ([3]; strain GC 4545): >128 µg/mL | MIC Coagulase Negative Staphylococcus (GC 4547) ([3]; strain GC 4547): >128 µg/mL | MIC Coagulase Negative Staphylococcus (GC 4548) ([3]; strain GC 4548): >128 µg/mL | MIC Coagulase Negative Staphylococcus (GC 4549) ([3]; strain GC 4549): >128 µg/mL | MIC Coagulase Negative Staphylococcus (GC 4551) ([3]; strain GC 4551): >128 µg/mL | MIC Staphylococcus aureus-SMITH (GC 4543) ([3]; strain SMITH GC 4543): >128 µg/mL | MIC Streptococcus pneumoniae (ATCC 6301) ([4]; strain ATCC 6301): >128 µg/mL | MIC Streptococcus pneumoniae (GC 1894) ([4]; strain GC 1894): 128 µg/mL (≈ 100 µM) | MIC Streptococcus pyogenes (GC 4563) ([4]; strain GC 4563): >128 µg/mL | MIC Streptococcus agalactiae (GC 4564) ([4]; strain GC 4564): >128 µg/mL | MIC Streptococcus pneumoniae (GC 4565) ([4]; strain GC 4565): >128 µg/mL
Structure (SMILES): CC(c1ccccc1)C1NC(=O)CNC(=O)C(CO)NC(=O)C(CC2CNC(=N)N2C2OC(CO)C(O)C(O)C2O)NC(=O)C(C(O)C2CNC(=N)N2)NC(=O)C(Cc2ccc(OC3OC(CO)C(OC4OC(CO)C(O)C(O)C4O)C(O)C3O)cc2)NC1=O (stereo not drawn) [Example 284b, Cyclo[3-(3-hexopyranosyl-2-iminoimidazolidin-4-yl)-alanylserylglycl-β-methylphenylalanyl-O-(4-O-hexopyranosylhexopyranosyl)tyrosyl-3-(2-iminoimidazolidin-4-yl)seryl]] (cyclo(G[ξPhe(βξ-Me)]Y(X2)[ξEnduracididine(βξ-OH,4'ξ)][X6]S); configuration not given here)
MIC Staphylococcus haemolyticus (GC 4546) [3]: >128 µg/mL | MIC Staphylococcus haemolyticus (GC 4546) ([3]; strain GC 4546): >128 µg/mL
